{"source": "patent EP2490029A1", "about": "“Vancomycin analysis” (Université Catholique de Louvain, priority 2011, dated 2012)", "key": {"Nα(Ac)-L-Lys-D-Ala-D-Ala": {"system": "Nα(Ac)-L-Lys-D-Ala-D-Ala", "assay": "FTIR-ATR biosensor binding of vancomycin to immobilized peptide receptor", "details": "for vancomycin binding: 50 µg/mL; for Kd: single site binding isotherm, R^2 = 0.99, ± standard error", "experimental": "On the thus functionalized ATR element a peptide was bound. Peptide binding onto the device was obtained in one channel of measurement at a time by incubation for 3 hours of N-α-acetyl-Lys-D-Ala-D-Ala peptide, or another peptide as provided in Figure 2, at a concentration of 2 mg/mL in phosphate buffered saline (PBS) at room temperature. The measurement channel was then rinsed with milliQ water for 30 min.\nThe binding of the peptide was monitored by FTIR-ATR spectroscopy by using the BIA-ATR device. Attenuated Total Reflection Fourier Transformed Infrared (ATR-FTIR) Spectra were obtained on a Brüker IFS55 FTIR spectrophotometer (Ettlingen, Germany) equipped with a MCT detector (broad band 12000-420 cm^-1, liquid N2 cooled, 24h hold time) at a resolution of 8 cm^-1 with an aperture of 3.5 mm and acquired in the double-sided, forward-backward mode. Two levels of zero filling of the interferogram prior to Fourier transform allowed encoding the data every 1 cm^-1. The spectrometer was continuously purged with dry air (Whatman 75-62, Haverhill, MA, USA). Triangular-shaped germanium crystals (4.8 x 4.8 x 45 mm^3) were purchased from Biosentech (Belgium) and accommodated on the beam condenser from a Golden Gate Micro-ATR from Specac. A top plate with a groove fitting the crystal was used in replacement of the diamond-bearing plate (WOW Company, Belgium). With this geometry, a single reflection was obtained and more than 10 lanes can be used on a crystal.\nUsing a biosensor constructed in Example 1, a solution of vancomycin in pure water (obtained from the laboratory MilliQ system) at a concentration of at 50 µg/mL is passed over one channel of the crystal at a flow-rate of 20 µl/min. FTIR-ATR spectra were recorded continuously and the vancomycin binding is monitored by following the appearance of its characteristic signal at 1230 cm^-1. This monitoring of this signal is advantageous as it is isolated in the spectra, i.e. not superimposed to other signals due to ligand and/or receptor. The intensity of the peak at 1230 cm^-1 thus allowed the quantitative measurement of vancomycin binding.\nThe N-α(Ac)-L-Lys-D-Ala-D-Ala biosensor as described in Example 1 was used. A solution of vancomycin in phosphate buffered saline (50 µg/mL) was used in the binding assay. The quantitative analysis was performed by measuring the surface on the IR spectra comprised between 1253 and 1218 cm^-1. The spectra were recorded every 30 sec during 5 min. […] The results are depicted in Figure 1.\nThe unexpected effect on the binding affinity of vancomycin versus X-D-Ala-D-Ala receptor immobilized on the ATR optical element, has been further observed by using the following detection media: 3 mM aqueous solution of Na2HPO4, 10 mM aqueous solution of Na2HPO4, 154 mM aqueous solution of NaCl, and a PBS solution made from 3 mM Na2HPO4 and 50 mM NaCl.\nThe Nα(Ac)-L-Lys-D-Ala-D-Ala biosensor described in Example 1 was used. The assays were performed three times successively using the same channel, and this has been repeated at three different days (n = 9) using another channel for each day. Solutions of vancomycin in 5% glucose at various concentrations (from 0 to 25 µg/mL) were passed over the crystal at a flow rate of 20 µL/min. The vancomycin binding was analyzed by the integration of the peak at 1230 cm^-1 (10 spectra recorded every 30 sec), and normalized by referring to the 25 µg/mL concentration.\nThe spiked dialyzed serum samples were flown over a measurement channel on which the Nα(Ac)-L-Lys-D-Ala-D-Ala had been attached as described before in Example 1. The absorption band between 1259 and 1213 cm^-1 was quantified for each vancomycin concentration. The area of the band was reported as a function of vancomycin concentration. […] From the data reported in Figure 4 it follows that vancomycin binding can be monitored with precision in a concentration range which is relevant for medical application."}, "[1]": {"system": "N-α-acetyl-Lys-D-ala-D-ala", "assay": "Quartz crystal microbalance (QCM) detection of vancomycin on grafted peptide receptor", "format": "binding", "details": "water/glucose solution compared with water; 1 µM and 40 µM; flow rate 40 µL/min", "experimental": "Quartz crystal microbalance experiments were performed using SRS Stanford Research Systems (QCM 200 5MHz). The surfaces of gold-plated quartz crystal on chips were prepared as follows: gold-plated quartz crystals were initially immersed in a piranha solution (70/30) for 3 minutes to regenerate the surfaces. The resulting crystals were repeatedly and intensively rinsed with water. The crystals were subsequently grafted with mPEG thiols (O-(2-Mercaptoethyl)-O'-methyl-hexa(ethylene glycol) (polypure) 10^-3 M in ethanol. The grafted crystals were subsequently rinsed with ethanol in an ultrasonic bath, and dried with N2. The grafted crystals were subsequently grafted with NHS ester succinimidyl, 2 mM in acetonitrile sprayed on the surfaces and the surfaces were placed in front of a UV lamp during 2 hours. The functionalized surfaces of the crystals were subsequently rinsed with acetonitrile in an ultrasonic bath; dried with N2, and then subsequently grafted with N-α-acetyl-Lys-D-ala-D-ala in pure water and in water with 5% of glucose (vol.).\nAll QCM experiments used a flow rate of 40 µL/min. The quality of all the grafting has been tested at each step, by contact angle measurements and IR spectra. All of them were satisfactory. Figures 6, 7 and 8 represent QCM data plot showing delta frequency (MHz) change over time of vancomycin detection. […]"}}, "data": [{"compound": "CN[C@H](CC(C)C)C(=O)N[C@H]1C(=O)N[C@@H](CC(N)=O)C(=O)N[C@H]2C(=O)N[C@H]3C(=O)N[C@H](C(=O)N[C@H](C(=O)O)c4cc(O)cc(O)c4-c4cc3ccc4O)[C@H](O)c3ccc(c(Cl)c3)Oc3cc2cc(c3O[C@@H]2O[C@H](CO)[C@@H](O)[C@H](O)[C@H]2O[C@H]2C[C@](C)(N)[C@H](O)[C@H](C)O2)Oc2ccc(cc2Cl)[C@H]1O", "note": "[vancomycin]", "values": [{"measurement": "amount of vancomycin detected", "setting": "Nα(Ac)-L-Lys-D-Ala-D-Ala; 50 µg/mL in phosphate buffered saline, compared to pure water, IR area 1253-1218 cm^-1", "value": "very weak"}, {"measurement": "vancomycin binding", "setting": "Nα(Ac)-L-Lys-D-Ala-D-Ala; effect of phosphate (3 mM or 10 mM Na2HPO4, PBS) in detection medium", "value": "totally prevents"}, {"measurement": "vancomycin binding", "setting": "Nα(Ac)-L-Lys-D-Ala-D-Ala; effect of sodium chloride at physiological concentration (154 mM NaCl)", "value": "partially inhibited"}, {"measurement": "Kd", "setting": "Nα(Ac)-L-Lys-D-Ala-D-Ala; in 5% glucose, band area 1259-1213 cm^-1", "value": "13.7 ± 1.8", "unit": "µM"}, {"measurement": "Kd", "setting": "Nα(Ac)-L-Lys-D-Ala-D-Ala; in human serum dialyzed against 5% glucose", "value": "7.3 ± 0.8", "unit": "µM"}, {"measurement": "vancomycin binding onto the receptor", "setting": "Nα(Ac)-L-Lys-D-Ala-D-Ala; in pure water", "value": "maximal"}, {"measurement": "delta frequency shift", "setting": "[1]", "value": "greater delta frequency was always observed in the presence of glucose"}]}]}
